Reference: PubChem BioAssay (NCI)
Where “and” joins values, the source holds several entries; their conditions need not be identical. Equal entries are not always repeated.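 Protocol summary: plate cells (96-well), add compound at 5 concentrations, incubate 48 h, interpolate endpoints linearly. GI50: concentration for 50% inhibition of growth. TGI denotes the concentration required for complete inhibition of growth.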

Columns and labels:
Test in all cases: NCI-60 cell line screen, 48 h
[1] = system: SF-295 CNS
[2] = system: EKVX NSCLC
[3] = system: OVCAR-3 ovarian
[4] = system: UACC-257 melanoma
[5] = system: HCT-15 colon
[6] = system: HT29 colon
[7] = system: UO-31 renal
[8] = system: HOP-62 NSCLC
[9] = system: SK-OV-3 ovarian
[10] = system: SF-539 CNS

SMILES	GI50 [1]	TGI [1]	GI50 [2]	TGI [2]	GI50 [3]	TGI [3]	GI50 [4]	TGI [4]	GI50 [5]	TGI [5]	GI50 [6]	TGI [6]	GI50 [7]	TGI [7]	GI50 [8]	TGI [8]	GI50 [9]	TGI [9]	GI50 [10]	TGI [10]
O=C(/C=C/c1ccccc1)Nc1ncc(Cc2ccccc2Cl)s1	0.282 µM	11.7 µM	0.571 µM	> 100 µM	0.226 µM	0.63 µM	> 100 µM	> 100 µM	0.237 µM	> 100 µM	0.331 µM	> 100 µM	0.614 µM	> 100 µM	0.505 µM	> 100 µM	0.79 µM	> 100 µM	0.223 µM	0.634 µM
C#CC1(O)C(COP(=O)(O)OCC(COP(=O)(O)OCC2OC(n3cc(F)c(=O)[nH]c3=O)CC2O)OCCCCCCCCCCCCCCCCCC)OC(n2ccc(N)nc2=O)C1O (centres undefined)	0.0555 µM	16.3 µM	0.618 µM	25.8 µM	0.448 µM	–	0.448 µM	> 31.6 µM	0.134 µM	> 100 µM	0.104 µM	> 71.9 µM	0.461 µM	–	0.0631 µM	10.6 µM	10.1 µM	76.3 µM	< 0.01 µM	3.33 µM
CC(=O)Oc1c(C)c(-c2ccccc2)c(C)c(-c2ccccc2)c1C(=S)c1ccccc1	–	> 100 µM	–	> 100 µM	–	> 100 µM	–	> 100 µM	–	> 100 µM	–	> 100 µM	–	> 100 µM	–	> 100 µM	–	> 100 µM	–	> 100 µM
CC(=O)OC1OC([C@H]2c3cccc(O)c3C(=O)c3c(O)cc(C)cc32)C(O)C(O)C1O (some centres undefined)	0.0817 µM	0.239 µM	0.198 µM	3.04 µM	0.029 µM	0.0885 µM	< 0.0139 µM	–	0.0385 µM	2 µM	0.116 µM	> 100 µM	0.138 µM	–	0.065 µM	1.93 µM	0.0576 µM	12.3 µM	0.121 µM	7.08 µM
CCOc1cccc(/C=N/NC(=O)c2cccc(Nc3ccnc(C(F)(F)F)c3)c2)c1O	2.4 µM	27.9 µM	1.55 µM	> 64.5 µM	0.401 µM	24.4 µM	3.09 µM	24 µM	1.1 µM	> 100 µM	5.34 µM	> 82.7 µM	0.717 µM	26.2 µM	0.682 µM	15.3 µM	0.796 µM	33.1 µM	1.32 µM	10.6 µM
O=C(NC(=O)c1c(F)cccc1F)Nc1cccc(Oc2ncc(Cl)cn2)c1	–	> 85 µM	–	> 100 µM	–	> 100 µM	–	> 100 µM	–	> 100 µM	–	> 46.4 µM	–	> 100 µM	–	73.6 µM	–	> 93.3 µM	–	> 100 µM
COc1cc(NS(=O)(=O)c2ccc(C)cc2)c2nccnc2c1	–	> 100 µM	–	> 100 µM	–	> 100 µM	–	> 100 µM	–	> 100 µM	–	> 100 µM	–	> 100 µM	–	> 100 µM	–	> 100 µM	–	83.8 µM
CCOc1cc(C(C)(C)C)ccc1C1=N[C@H](c2ccc(Cl)cc2)[C@H](c2ccc(Cl)cc2)N1C(=O)N1CCN(CC#Cc2cccc3c2CN([C@@H]2CCC(=O)NC2=O)C3=O)CC1	2.53 µM	19.2 µM	3.98 µM	> 100 µM	2.81 µM	15.9 µM	1.85 µM	14.8 µM	0.301 µM	> 53.5 µM	2.41 µM	> 34.8 µM	0.236 µM	2 µM	0.115 µM	16.3 µM	6.95 µM	> 88.9 µM	4.49 µM	> 100 µM
COc1ccc2c(c1)NC1=C(C(=O)OC1)C2c1cc(OC)c(OC)c(OC)c1 (centres undefined)	< 0.01 µM	> 54.5 µM	12 µM	> 100 µM	< 0.01 µM	< 0.01 µM	< 0.01 µM	> 100 µM	< 0.01 µM	> 100 µM	< 0.01 µM	> 100 µM	–	> 100 µM	< 0.01 µM	42.5 µM	< 0.01 µM	–	< 0.01 µM	18.6 µM
O=C1N/C(=C\[N+](=O)[O-])c2ccccc21	–	> 100 µM	–	> 100 µM	–	> 100 µM	–	> 100 µM	–	> 100 µM	–	> 100 µM	–	> 100 µM	–	> 100 µM	–	> 100 µM	–	> 100 µM
N[C@H](C(=O)O)[C@@H]1CC(Cl)=NO1	7.59 µM and 2.63 µM	> 908 µM	11.5 µM	303 µM	31.4 µM	469 µM	84.8 µM	> 1000 µM	8.33 µM	> 912 µM	7.44 µM	> 811 µM	26.6 µM	772 µM	6.27 µM	170 µM	34.5 µM	> 584 µM	25.4 µM	916 µM
NC1=NN(c2ccccc2)C(=O)C1C(=O)CCC(=O)Nc1cccc(Cl)c1 (centres undefined)	–	> 100 µM	–	> 100 µM	–	> 100 µM	–	> 100 µM	–	> 100 µM	–	> 100 µM	–	> 100 µM	–	> 100 µM	–	> 100 µM	–	> 100 µM
CCCCCCCCCCCCCCCCCCOC[C@H](COP(=O)(O)O[C@H]1[C@H](O)[C@@H](O)[C@H](O)C[C@H]1O)OC	98.4 µM and 15.3 µM	> 100 µM and 30.8 µM	82.8 µM and 13.3 µM	> 100 µM and 26.8 µM	> 100 µM and 16.9 µM	> 100 µM and 34.9 µM	> 100 µM and 17 µM	> 100 µM and 31.5 µM	37.2 µM and 14.3 µM	> 100 µM and 28.9 µM	58.7 µM and 13.1 µM	> 100 µM and 26.2 µM	> 100 µM	> 100 µM and 22.1 µM	> 100 µM and 15.7 µM	> 100 µM and 41.5 µM	> 100 µM and 17.4 µM	> 100 µM and 34 µM	> 100 µM and 16.2 µM	> 100 µM and 31 µM
CN(C)CCC(=O)N1C/C(=C\c2ccc(Cl)c(Cl)c2)C(=O)/C(=C/c2ccc(Cl)c(Cl)c2)C1	–	0.824 µM	–	1.53 µM	–	0.93 µM	–	2.53 µM	–	0.493 µM	–	0.495 µM	–	0.862 µM	–	0.941 µM	–	3.76 µM	–	0.832 µM
COc1ccc(C(C#N)NC23CC4CC(CC(C4)C2)C3)cc1 (centres undefined)	–	> 100 µM	–	> 100 µM	–	> 100 µM	–	> 100 µM	–	> 100 µM	–	> 100 µM	–	> 100 µM	–	> 100 µM	–	> 100 µM	–	> 100 µM
